Results as given in the supplement of paper PMC10307832.

Columns and labels:
Test in all cases: relative viability (nuclei count vs DMSO), 5 days (fraction); higher = more cells survive
[1] = system: NCI-H2126
Outline: (§1)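 A single step with final 0.05% Triton X-100, 1% formaldehyde and 1 ug/ml Hoechst fixed the cells and stained nuclei 5 days after treatment. Lung cancer cell lines in 1536-well plates had been treated by pin tool the day after seeding with one drug alone or a fixed anchor-drug dose plus five library-drug doses (not always all listed) in √10 steps, and nuclei were counted on 4× images. Relative viability is the ratio of nuclei in treated wells to nuclei in vehicle wells, taken as the median of duplicate plates.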

[2] = system: LCLC-103H
Outline: as §1

[3] = system: HOP-62
Outline: as §1

[4] = system: NCI-H441
Outline: as §1

[5] = system: NCI-H1993
Outline: as §1

[6] = system: HCC-827
Outline: as §1

[7] = system: SK-MES-1
Outline: as §1

[8] = system: BEN
Outline: as §1

[9] = system: ChaGo-K-1
Outline: as §1

[10] = system: LXF-289
Outline: as §1

[11] = system: NCI-H661
Outline: as §1

[12] = system: PC-14
Outline: as §1

[13] = system: LOU-NH91
Outline: as §1

[14] = system: NCI-H647
Outline: as §1

[15] = system: NCI-H1355
Outline: as §1

[16] = system: NCI-H727
Outline: as §1

[17] = system: NCI-H1437
Outline: as §1

[18] = system: NCI-H2170
Outline: as §1

[19] = system: NCI-H1944
Outline: as §1

[20] = system: LK-2
Outline: as §1

[21] = system: RERF-LC-KJ
Outline: as §1

[22] = system: NCI-H1666
Outline: as §1

[23] = system: EKVX
Outline: as §1

## CCNC(=O)c1noc(-c2cc(C(C)C)c(O)cc2O)c1-c1ccc(CN2CCOCC2)cc1 [Luminespib] + CC(=O)c1c(C)c2cnc(Nc3ccc(N4CCNCC4)cn3)nc2n(C2CCCC2)c1=O [Palbociclib] (partner 0.5 µM)
[1]; first compound 0.002 µM
  relative viability: 0.337
[1]; first compound 0.006325 µM
  relative viability: 0.325
[1]; first compound 0.06325 µM
  relative viability: 0.351
[1]; first compound 0.2 µM
  relative viability: 0.393
[2]; first compound 0.002 µM
  relative viability: 0.481
[2]; first compound 0.006325 µM
  relative viability: 0.454
[2]; first compound 0.02 µM
  relative viability: 0.447
[2]; first compound 0.06325 µM
  relative viability: 0.469
[2]; first compound 0.2 µM
  relative viability: 0.468
[3]; first compound 0.002 µM
  relative viability: 0.451
[3]; first compound 0.006325 µM
  relative viability: 0.449
[3]; first compound 0.02 µM
  relative viability: 0.594
[3]; first compound 0.06325 µM
  relative viability: 0.384
[3]; first compound 0.2 µM
  relative viability: 0.235
[4]; first compound 0.002 µM
  relative viability: 0.243
[4]; first compound 0.006325 µM
  relative viability: 0.215
[4]; first compound 0.02 µM
  relative viability: 0.143
[4]; first compound 0.06325 µM
  relative viability: 0.102
[4]; first compound 0.2 µM
  relative viability: 0.1
[5]; first compound 0.002 µM
  relative viability: 0.714
[5]; first compound 0.006325 µM
  relative viability: 0.611
[5]; first compound 0.02 µM
  relative viability: 0.473
[5]; first compound 0.06325 µM
  relative viability: 0.716
[5]; first compound 0.2 µM
  relative viability: 0.413
[6]; first compound 0.002 µM
  relative viability: 0.492
[6]; first compound 0.006325 µM
  relative viability: 0.473
[6]; first compound 0.02 µM
  relative viability: 0.326
[6]; first compound 0.06325 µM
  relative viability: 0.178
[6]; first compound 0.2 µM
  relative viability: 0.148
[7]; first compound 0.002 µM
  relative viability: 0.296
[7]; first compound 0.006325 µM
  relative viability: 0.335
[7]; first compound 0.02 µM
  relative viability: 0.368
[7]; first compound 0.06325 µM
  relative viability: 0.151
[7]; first compound 0.2 µM
  relative viability: 0.172
[8]; first compound 0.002 µM
  relative viability: 0.472
[8]; first compound 0.006325 µM
  relative viability: 0.468
[8]; first compound 0.02 µM
  relative viability: 0.438
[8]; first compound 0.06325 µM
  relative viability: 0.409
[8]; first compound 0.2 µM
  relative viability: 0.323
[9]; first compound 0.002 µM
  relative viability: 0.813
[9]; first compound 0.006325 µM
  relative viability: 0.888
[9]; first compound 0.02 µM
  relative viability: 0.963
[9]; first compound 0.06325 µM
  relative viability: 0.925
[9]; first compound 0.2 µM
  relative viability: 0.82
[10]; first compound 0.002 µM
  relative viability: 0.582
[10]; first compound 0.006325 µM
  relative viability: 0.569
[10]; first compound 0.02 µM
  relative viability: 0.601
[10]; first compound 0.06325 µM
  relative viability: 0.574
[10]; first compound 0.2 µM
  relative viability: 0.535
[11]; first compound 0.002 µM
  relative viability: 0.427
[11]; first compound 0.006325 µM
  relative viability: 0.396
[11]; first compound 0.02 µM
  relative viability: 0.315
[11]; first compound 0.06325 µM
  relative viability: 0.309
[11]; first compound 0.2 µM
  relative viability: 0.322
[12]; first compound 0.002 µM
  relative viability: 0.541
[12]; first compound 0.006325 µM
  relative viability: 0.367
[12]; first compound 0.02 µM
  relative viability: 0.315
[12]; first compound 0.06325 µM
  relative viability: 0.0535
[12]; first compound 0.2 µM
  relative viability: 0.0542
[13]; first compound 0.002 µM
  relative viability: 0.557
[13]; first compound 0.006325 µM
  relative viability: 0.533
[13]; first compound 0.02 µM
  relative viability: 0.503
[13]; first compound 0.06325 µM
  relative viability: 0.375
[13]; first compound 0.2 µM
  relative viability: 0.354
[14]; first compound 0.002 µM
  relative viability: 0.442
[14]; first compound 0.006325 µM
  relative viability: 0.396
[14]; first compound 0.02 µM
  relative viability: 0.207
[14]; first compound 0.06325 µM
  relative viability: 0.0721
[14]; first compound 0.2 µM
  relative viability: 0.0558
[15]; first compound 0.002 µM
  relative viability: 0.415
[15]; first compound 0.006325 µM
  relative viability: 0.383
[15]; first compound 0.02 µM
  relative viability: 0.257
[15]; first compound 0.06325 µM
  relative viability: 0.367
[15]; first compound 0.2 µM
  relative viability: 0.222
[16]; first compound 0.002 µM
  relative viability: 0.668
[16]; first compound 0.006325 µM
  relative viability: 0.665
[16]; first compound 0.02 µM
  relative viability: 0.631
[16]; first compound 0.06325 µM
  relative viability: 0.45
[16]; first compound 0.2 µM
  relative viability: 0.424
[17]; first compound 0.002 µM
  relative viability: 0.34
[17]; first compound 0.006325 µM
  relative viability: 0.306
[17]; first compound 0.02 µM
  relative viability: 0.309
[17]; first compound 0.06325 µM
  relative viability: 0.273
[17]; first compound 0.2 µM
  relative viability: 0.22
[18]; first compound 0.002 µM
  relative viability: 0.41
[18]; first compound 0.006325 µM
  relative viability: 0.383
[18]; first compound 0.06325 µM
  relative viability: 0.376
[18]; first compound 0.2 µM
  relative viability: 0.315
[19]; first compound 0.002 µM
  relative viability: 0.309
[19]; first compound 0.006325 µM
  relative viability: 0.389
[19]; first compound 0.02 µM
  relative viability: 0.249
[19]; first compound 0.06325 µM
  relative viability: 0.316
[19]; first compound 0.2 µM
  relative viability: 0.303
[20]; first compound 0.002 µM
  relative viability: 0.679
[20]; first compound 0.006325 µM
  relative viability: 0.563
[20]; first compound 0.02 µM
  relative viability: 0.351
[20]; first compound 0.06325 µM
  relative viability: 0.0849
[20]; first compound 0.2 µM
  relative viability: 0.0745
[21]; first compound 0.002 µM
  relative viability: 1.04
[21]; first compound 0.006325 µM
  relative viability: 1.01
[21]; first compound 0.02 µM
  relative viability: 1.02
[21]; first compound 0.06325 µM
  relative viability: 0.269
[21]; first compound 0.2 µM
  relative viability: 0.227
[22]; first compound 0.002 µM
  relative viability: 0.647
[22]; first compound 0.006325 µM
  relative viability: 0.67
[22]; first compound 0.02 µM
  relative viability: 0.673
[22]; first compound 0.06325 µM
  relative viability: 0.705
[22]; first compound 0.2 µM
  relative viability: 0.655
[23]; first compound 0.002 µM
  relative viability: 0.431
[23]; first compound 0.006325 µM
  relative viability: 0.364
[23]; first compound 0.02 µM
  relative viability: 0.184
[23]; first compound 0.06325 µM
  relative viability: 0.342
[23]; first compound 0.2 µM
  relative viability: 0.138
